Source: US20170000405A1, “RAPID, REPRODUCIBLE, NON-INVASIVE PREDICTOR OF CADAVERIC DONOR LIVER GRAFT UTILIZATION” (THE REGENTS OF THE UNIVERSITY OF CALIFORNIA, priority 2014, published 2017)

Conditions: human, in vivo
Procedure: To evaluate the method for rapid, non-invasive, quantitative assessment of liver function, performed before liver graft procurement, a LiMON liver function monitor, manufactured by Pulsion Medical Systems, Munich, Germany, was used for the assessment of brain-dead donor livers by measuring Indocyanine Green Plasma Disappearance Rates (ICG-PDRs). […] The LiMON monitor 102 measures Indocyanine Green (ICG) 104 clearance from the blood, after the ICG is administered intravenously to the donor, by non-invasive pulse-densitometry using, for example, a finger probe 106.
Injected ICG 202 is detected by a sensor 204 on the finger 206 from fractional pulsatile changes 208, 210 in optical absorption using LED lights 212. The optical peak absorption of 805 nm as shown in FIG. 2B and 905 nm as shown in FIG. 2C allows continuous measurements of ICG-PDR. The clearance of the injected dye from the blood (mg/l) can be calculated as:
The ICG-PDR is calculated as the ICG clearance (CICG) over time, as shown in the graph in FIG. 3.
Consecutive adult brain-dead donors in the local donation service area, whose livers were offered to the study center, were assessed for liver function using the methods of the current disclosure, after permission was acquired. Immediately prior to organ procurement, indocyanine green elimination tests were conducted using the non-invasive liver function monitoring system shown in FIG. 1 and FIG. 2A. Each patient received an ICG finger clip connected to a liver function monitor. A dose of 0.25 mg/kg ICG (ICG—PULSION, Pulsion Medical Systems) was given through a central vein as a bolus and immediately flushed with 10 mL of normal saline. All of the ICG-PDR measurements were acquired using the LiMON liver function monitor manufactured by Pulsion Medical Systems, Munich, Germany.

CC1(C)C(/C=C/C=C/C=C/C=C2\N(CCCCS(=O)(=O)O)c3ccc4ccccc4c3C2(C)C)=[N+](CCCCS(=O)(=O)[O-])c2ccc3ccccc3c21 [ICG, Indocyanine Green]
IGG-PDR, Mean (SD), Accepted: 24.1 (6.7) %/min
IGG-PDR, Mean (SD), Rejected: 17.9 (4.7) %/min
PDR, sample PULSION-LiMON ICG trace of a non-acceptable liver: 12.9 % clearance per minute
PDR, sample PULSION-LiMON ICG trace of an accepted liver: 21.5 % clearance per minute
